We go through 2 compounds from patent publication US20230235374A1, “High Throughput Assays for Detecting Translation Readthrough Inducers” (The Trustees of the University of Pennsylvania, priority 2021, published 2023).

Some results are limits rather than exact numbers.

The test system of experiment [1] is Atto(pep)-Stop-POST5 (RFC-dependent termination). Kind of experiment: Plate reader fluorescence anisotropy assay of pentapeptide release. The format is biochemical, shrimp (Artemia salina). The note with it: added ataluren 200-1,000 μM. As to the method:
Plate reader assays were run in a Tecan F200® 96-well plate reader (Greiner® black, non-binding, chimney flat) equipped with 640 nm excitation and 700 nm polarization filters using 96-well plates. Atto(pep)-Stop-POST5 in Buffer 4 (0.1 μM, 80 μl) containing GTP (1 mM) was added to plate wells±ataluren at 25° C. eRF1 and eRF3 aliquots stored at −80° C. were thawed for 15 s at 37° C. and added directly to a premade ice-cold GTP (1 mM)±ataluren solution in Buffer 4. The resulting release factor solution was incubated at 25° C. for 1 min, and then added quickly in 80 μL portions to the Atto(pep)-Stop-POST5 containing wells with a multichannel pipette to the Atto(pep)-Stop-Posts wells. The final concentrations were: eRF1, 0.025-0.4 μM; eRF3, 0.8 μM; Atto(pep)-Stop-Posts, 0.05 μM. Fluorescence anisotropy decay graphs were fit with GraphPad Prism, using the one phase decay model to obtain peptide dissociation rates.
Ensemble fluorescence anisotropy results using Atto(pep)-Stop-POST5. The fluorescence anisotropy of the pentapeptidyl moiety of Atto(pep)-Stop-POST5 was quite high (0.22), and decreased following addition of RFC, providing a convenient measure of the rate of pentapeptide release from the ribosome. […] Each such time dependency could be fit to a single exponential, giving the collected rate constants presented in FIG. 9G, in which the rate dependence as a function of RFC concentration was measured at 0, 200, 500, and 1,000 μM ataluren. In the absence of ataluren, EC50 (0.029±0.002 μM) and Vmax (0.31±0.02) values were obtained for pentapeptide release similar to those measured by smTIRF. In addition, as with the smTIRF results, Vmax values were unaffected by added ataluren but EC50 values increased, reaching ˜0.06 μM at 1000 μM.
In general terms: In fluorescence polarisation assays a small probe gives low polarisation when free and higher when bound to something large.

Experiment [2] relates to Cy5-hRF1.hRF3.GTP binding to Stop-POST5. Kind of experiment: smFRET Cy5-hRF1.hRF3.GTP binding to Stop-POST5. On the set-up: species or system human. The note with it: ataluren 1 mM, FIG. 15C. The source says:
Several important results have been obtained with Cy5-heRF1 which further elucidate the mechanism of termination shown in FIGS. 14A and 14B. Cy5-heRF1 forms a catalytically active RFC with unlabeled heRF3, which, when added to the Stop-POST5 complex, generated a transient FRET signal with FKVRQ-tRNA^Gln(Cy3) bound in the P-site (FIGS. 15A and 15B).

In experiment [3] the test system is Stop-POST5 complex. Kind of experiment: [3H]-AzAt photoaffinity labeling of Stop-POST5 complex. The format is binding, shrimp (Artemia salina). As to the method: (§1) Photoaffinity labeling with [^3H]-AzAt. Samples in Buffer 4, typically 20 μL, were incubated in the dark (20 min for Stop-POST5 and 80S-IRES complexes, 2 min for release factors) with various concentrations of [^3H]-AzAt at 37° C., transferred to a UV-transparent cuvette which was covered with parafilm to prevent evaporation, and irradiated in a Rayonet photochemical reactor equipped with 300 nm UV lamps for 5 min at room temperature. This was followed by quenching with 2 mM DTT at 37° C. for 5 min under ambient light. The irradiation time gave complete photolysis of the phenyl azide moiety in AzAt. Photolysis was also complete at 5 min in the presence of 1 mM ataluren, ruling out internal filtering effects.
Stop-POST5 and 80S-IRES complexes. 1 μM solutions of either Stop-POST5 or 80S-S.IRES, determined by A260, were photolabeled by [^3H]-AzAt. The sample was then either directly purified by ultracentrifugation through a sucrose cushion to determine the photoincorporation stoichiometry in the complex, or subjected to phenol/chloroform extraction to determine the photoincorporation stoichiometry in the total RNA. To determine the photoincorporation background arising from incomplete removal of noncovalently bound photolyzed AzAt, AzAt was prephotolysed for 5 min before adding to the complex, followed by the 20 min incubation in dark at 37° C. and subsequent sucrose cushion purification or RNA extraction as described above.

For experiment [4], the target named is T1, eRF3 (Saccharomyces cerevisiae, UniProt P05453).
T1 construct: amino acid residues (166-685) of the eRF3 open reading frame; made in house; host or cells: E. coli BL21(DE3) CodonPlus
T1 sequence (P05453 166-685): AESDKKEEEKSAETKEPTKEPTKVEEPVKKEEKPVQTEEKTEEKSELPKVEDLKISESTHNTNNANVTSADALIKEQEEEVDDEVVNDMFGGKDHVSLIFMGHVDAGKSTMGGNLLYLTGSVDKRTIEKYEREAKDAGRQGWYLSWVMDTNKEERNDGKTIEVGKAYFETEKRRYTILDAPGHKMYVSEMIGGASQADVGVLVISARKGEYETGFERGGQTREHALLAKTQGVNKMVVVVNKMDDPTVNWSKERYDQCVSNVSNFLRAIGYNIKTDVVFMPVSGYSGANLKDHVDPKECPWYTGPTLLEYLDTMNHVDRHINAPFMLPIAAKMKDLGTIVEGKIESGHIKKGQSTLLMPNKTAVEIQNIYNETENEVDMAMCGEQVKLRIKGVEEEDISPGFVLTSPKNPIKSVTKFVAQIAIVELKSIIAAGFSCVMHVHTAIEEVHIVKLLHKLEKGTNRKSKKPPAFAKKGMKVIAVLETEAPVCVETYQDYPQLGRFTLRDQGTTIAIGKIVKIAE
The experiment is described as follows: [3H]-AzAt photoaffinity labeling of eRF3. The format is binding. The note with it: near linear response to AzAt concentration. As to the method:
as §1
Photoaffinity labeling of release factors. Solutions containing eRF1 (10 μM), eRF3 (20 μM) and 1 mM GMPPMP were pre-incubated at 37° C. for 2 min to form the ternary complex prior to photolabeling with [^3H]-AzAt. After quenching, reaction mixtures were loaded onto a 4-15% mini protean SDS-PAGE gel for protein separation and isolation. Gel slices containing eRF1 or eRF3, as shown by Coomassie Blue R250 staining, were crushed and the radioactivity was extracted in extraction buffer (50 mM Tris-HCl, 150 mM NaCl, and 0.1 mM EDTA; pH 7.5) by vigorously shaking at 70° C. for 30 min. The data fitting was performed using the software Prism. […]

In the case of `O=C(O)c1cccc(-c2noc(-c3ccccc3F)n2)c1` [Ataluren], in experiment [1], the “effect on Vmax values” is listed as “unaffected”. Moreover, the “effect on rate of Cy5-hRF1.hRF3.GTP binding to Stop-POST5” value in experiment [2] was “strongly inhibited”.

For the compound `[N-]=[N+]=Nc1ccc(-c2nc(-c3cccc(C(=O)O)c3)no2)cc1` [AzAt], in experiment [3], the “saturation labeling of Stop-POST5” value is 1.2 /Stop-POST5 and the “share of photoincorporation found in RNA components of Stop-POST5” value is reported as “More than 80%”. Also, the “KA, AzAt photoincorporation into Stop-POST5” value in experiment [3] (fit to eq (1), FIG. 2B) stood at 120 ± 60 µM. Moreover, in experiment [3] (urea-PAGE analysis), the “share of RNA photoincorporation found within 18S and 26S rRNA” value was over 90%. Besides, the “nature of photo-incorporation into eRF3” value in experiment [4] is “nonspecific binding”.
